# Test results reported in patent publication US10906878B2, “Kinase inhibitors for the treatment of disease” (Dana-Farber Cancer Institute, Inc., priority 2013, dated 2021).
# Columns and labels:
# [1] = Microsome Stability Mouse; type: in vitro ADME; settings: mouse microsomes
# [2] = target: EGFR Wild type vIII Ba/F3 cells (Homo sapiens (Human), UniProt P00533, DELINS30-297G); assay: Ba/F3 cell growth inhibition (MTS assay), EGFR Wild type vIII; type: cell-based; settings: Assay 1, read-out: EGFR Ba/F3 cells IC 50 (nM) Assay 1 Wild type vIII
# EGFR Del Ba/F3 cells = EGFR Del Ba/F3 cells (Homo sapiens, UniProt P00533, cells depend on it, form not given); assay: Ba/F3 cell growth inhibition (MTS assay), EGFR Del; type: cell-based
# Excerpt: (§1) The specific cDNAs encoding the oncogenic alterations (EGFR: Del 19, L858R, L718Q, L844V, Del/T790M, L858R/T790M, Del 19/L718Q, Del 19/L844V, Del 19/T790M/L718Q and L858R/T790M/L718Q; FGFR: TEL-FGFR1, TEL-FGFR2, TEL-FGFR1 V561M, TEL-FGFR2 V561M; ALK: EML4-ALK; ROS1: CD74-ROS1) were cloned into the pDNA-Dual (BD Biosciences) vector using standard molecular biology techniques. Mutations were introduced using site-directed mutagenesis (Agilent) with mutant specific primers according to the manufacturer's instructions. All constructs were confirmed by DNA sequencing. The constructs were introduced into Ba/F3 cells using retroviral infection. Polyclonal cell lines were established by puromycin selection and subsequently cultured in the absence of interleukin-3 (IL-3). Uninfected Ba/F3 cells or cell lines expressing green fluorescent protein (GFP) were used as controls.
# (§2) Growth and inhibition of growth was assessed by MTS assay. This assay, a colorimetric method for determining the number of viable cells, is based on the bioreduction of 3-(4,5-dimethylthiazol-2-yl)-5-(3-carboxymethoxyphenyl)-2-(4-sulfophenyl)-2H-tetrazolium (MTS) by cells to a formazan product that is soluble in cell culture medium, can be detected spectrophotometrically and was performed according to the manufacturer's recommended conditions. Ba/F3 cells were exposed to treatment for 72 hours and the number of cells used per experiment determined empirically to assure linear growth kinetics over that time period. All experimental points were set up in six to twelve wells and all experiments were repeated at least three times. […] The curves were fitted using a non-linear regression model with a sigmoidal dose response.
# [3] = target: EGFR Del/T790M Ba/F3 cells (Homo sapiens, UniProt P00533, T790M, cells depend on it, form not given); assay: Ba/F3 cell growth inhibition (MTS assay), EGFR Del/T790M; type: cell-based
# Excerpt: as §1, §2
# EGFR L858R Ba/F3 cells = EGFR L858R Ba/F3 cells (Homo sapiens (Human), UniProt P00533, L858R); assay: Ba/F3 cell growth inhibition (MTS assay), EGFR L858R; type: cell-based
# Excerpt: as §1, §2
# [4] = target: EGFR L858R/T790M Ba/F3 cells (Homo sapiens (Human), UniProt P00533, L858R/T790M); assay: Ba/F3 cell growth inhibition (MTS assay), EGFR L858R/T790M; type: cell-based
# Excerpt: as §1, §2
# [5] = target: EGFR L858R/T790M/L718Q Ba/F3 cells (Homo sapiens (Human), UniProt P00533, L718Q/L858R/T790M); assay: Ba/F3 cell growth inhibition (MTS assay), EGFR L858R/T790M/L718Q; type: cell-based; settings: Assay 1; T/L/L718Q; read-out: EGFR Ba/F3 cells IC 50 (nM) Assay 1 T/L/L718Q
# Excerpt: as §1, §2
# BLK = BLK (Homo sapiens (Human), UniProt P51451); assay: Kinase inhibition BLK; type: biochemical
# Sequence of BLK (P51451 whole entry): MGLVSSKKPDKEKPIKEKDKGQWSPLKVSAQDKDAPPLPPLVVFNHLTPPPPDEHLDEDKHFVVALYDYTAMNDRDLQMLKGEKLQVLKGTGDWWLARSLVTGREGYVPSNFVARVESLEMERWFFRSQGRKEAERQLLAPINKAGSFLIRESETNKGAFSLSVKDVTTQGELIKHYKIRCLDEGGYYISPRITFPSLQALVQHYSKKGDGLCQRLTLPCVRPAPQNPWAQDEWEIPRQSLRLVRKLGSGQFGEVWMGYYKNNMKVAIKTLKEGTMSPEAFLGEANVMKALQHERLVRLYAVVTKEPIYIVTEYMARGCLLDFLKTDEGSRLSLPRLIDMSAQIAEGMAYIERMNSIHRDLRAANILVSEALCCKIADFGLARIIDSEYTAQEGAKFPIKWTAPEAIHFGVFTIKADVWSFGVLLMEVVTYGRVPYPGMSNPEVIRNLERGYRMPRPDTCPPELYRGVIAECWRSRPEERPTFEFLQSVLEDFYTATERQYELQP
# ITK = ITK (Homo sapiens (Human), UniProt Q08881); assay: Kinase inhibition ITK; type: biochemical
# Sequence of ITK (Q08881 whole entry): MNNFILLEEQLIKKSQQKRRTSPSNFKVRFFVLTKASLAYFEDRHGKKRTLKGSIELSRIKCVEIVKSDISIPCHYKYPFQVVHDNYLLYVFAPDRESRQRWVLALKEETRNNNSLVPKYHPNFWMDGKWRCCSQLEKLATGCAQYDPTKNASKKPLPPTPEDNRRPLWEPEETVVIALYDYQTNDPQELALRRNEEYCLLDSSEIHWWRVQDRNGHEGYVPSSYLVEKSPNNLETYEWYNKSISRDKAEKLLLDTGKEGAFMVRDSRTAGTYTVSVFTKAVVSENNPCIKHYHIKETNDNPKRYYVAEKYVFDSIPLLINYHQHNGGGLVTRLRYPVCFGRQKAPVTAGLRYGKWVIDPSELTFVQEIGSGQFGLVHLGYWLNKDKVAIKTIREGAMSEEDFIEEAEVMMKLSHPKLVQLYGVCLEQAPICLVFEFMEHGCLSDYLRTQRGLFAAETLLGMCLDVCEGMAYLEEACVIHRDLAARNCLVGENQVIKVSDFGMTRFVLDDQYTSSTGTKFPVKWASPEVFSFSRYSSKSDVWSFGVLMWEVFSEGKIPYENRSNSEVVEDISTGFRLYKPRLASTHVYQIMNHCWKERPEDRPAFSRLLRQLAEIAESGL
# TEC = TEC (Homo sapiens (Human), UniProt P42680); assay: Kinase inhibition TEC; type: biochemical
# Sequence of TEC (P42680 whole entry): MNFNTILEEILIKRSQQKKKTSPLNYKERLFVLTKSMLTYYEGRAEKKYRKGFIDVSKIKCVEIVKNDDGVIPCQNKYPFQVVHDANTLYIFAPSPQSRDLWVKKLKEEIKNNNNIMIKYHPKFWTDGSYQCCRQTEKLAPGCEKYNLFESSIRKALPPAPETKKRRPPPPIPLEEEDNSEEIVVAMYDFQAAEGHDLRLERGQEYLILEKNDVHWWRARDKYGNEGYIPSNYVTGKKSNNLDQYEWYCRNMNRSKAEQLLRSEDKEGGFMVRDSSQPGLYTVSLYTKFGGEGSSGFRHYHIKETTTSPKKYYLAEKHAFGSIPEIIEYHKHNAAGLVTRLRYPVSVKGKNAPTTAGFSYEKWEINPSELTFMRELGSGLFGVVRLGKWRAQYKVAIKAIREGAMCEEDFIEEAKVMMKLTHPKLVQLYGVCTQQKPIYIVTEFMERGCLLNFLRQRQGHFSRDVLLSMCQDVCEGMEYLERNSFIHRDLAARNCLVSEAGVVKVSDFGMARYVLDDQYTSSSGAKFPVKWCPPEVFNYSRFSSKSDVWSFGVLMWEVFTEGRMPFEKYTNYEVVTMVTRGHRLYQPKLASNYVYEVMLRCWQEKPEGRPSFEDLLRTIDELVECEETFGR
# TXK = TXK (Homo sapiens (Human), UniProt P42681); assay: Kinase inhibition TXK; type: biochemical
# Sequence of TXK (P42681 whole entry): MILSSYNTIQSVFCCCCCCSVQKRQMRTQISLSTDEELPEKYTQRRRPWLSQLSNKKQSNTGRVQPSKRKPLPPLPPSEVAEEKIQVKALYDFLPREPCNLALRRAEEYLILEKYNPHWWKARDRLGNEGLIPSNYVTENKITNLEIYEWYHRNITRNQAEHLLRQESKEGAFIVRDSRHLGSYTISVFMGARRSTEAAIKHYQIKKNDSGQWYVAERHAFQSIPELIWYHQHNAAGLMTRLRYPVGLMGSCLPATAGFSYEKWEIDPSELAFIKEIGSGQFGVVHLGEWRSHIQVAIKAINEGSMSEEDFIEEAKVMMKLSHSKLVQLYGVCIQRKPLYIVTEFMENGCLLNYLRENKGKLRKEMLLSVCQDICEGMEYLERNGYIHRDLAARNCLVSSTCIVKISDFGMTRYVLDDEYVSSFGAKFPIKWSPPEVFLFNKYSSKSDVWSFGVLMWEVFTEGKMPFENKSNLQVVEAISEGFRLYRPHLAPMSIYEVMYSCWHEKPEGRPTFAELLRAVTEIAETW
# BTK = BTK (Homo sapiens (Human), UniProt Q06187); assay: BTK kinase assay (LanthaScreen Kinase assay); type: biochemical
# Sequence of BTK (Q06187 whole entry): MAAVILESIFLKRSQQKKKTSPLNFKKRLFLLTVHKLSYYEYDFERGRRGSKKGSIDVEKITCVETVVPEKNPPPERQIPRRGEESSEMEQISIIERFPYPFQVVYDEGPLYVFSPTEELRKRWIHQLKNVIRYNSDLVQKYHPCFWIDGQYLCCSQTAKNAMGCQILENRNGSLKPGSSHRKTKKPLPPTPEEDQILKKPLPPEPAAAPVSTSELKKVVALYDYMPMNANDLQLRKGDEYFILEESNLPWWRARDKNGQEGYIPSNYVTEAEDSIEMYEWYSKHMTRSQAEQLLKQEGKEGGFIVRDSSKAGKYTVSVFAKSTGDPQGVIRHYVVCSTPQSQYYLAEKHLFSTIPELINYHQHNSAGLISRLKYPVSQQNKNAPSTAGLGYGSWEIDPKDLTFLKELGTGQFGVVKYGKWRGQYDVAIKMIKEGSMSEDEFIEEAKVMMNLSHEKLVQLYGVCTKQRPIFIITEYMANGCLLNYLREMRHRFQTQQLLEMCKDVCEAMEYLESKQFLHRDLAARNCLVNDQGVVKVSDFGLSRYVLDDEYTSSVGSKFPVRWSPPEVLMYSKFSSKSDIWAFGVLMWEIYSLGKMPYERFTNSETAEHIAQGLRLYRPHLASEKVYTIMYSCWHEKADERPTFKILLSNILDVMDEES
# Description: BTK kinase assay was conducted using LanthaScreen® Kinase assay.
# 1. Optimization of kinase concentration required to determine ATP Km,app. The assay was first performed at a high concentration of ATP (1 mM) against a dilution series of kinase in order to determine the amount of kinase required to elicit an approximately 80% change between the minimum and maximum TR-FRET emission ratios (the EC80 value).
# 2. Determination of ATP Km,app. Using the concentration of enzyme determined in step 1, the assay was then performed against a dilution series of ATP in order to determine the amount of ATP required to elicit a 50% change between the minimum and maximum TR-FRET emission ratios (the EC50 value). This concentration of ATP was referred to as the “apparent” Km value for ATP, or the ATP Km,app.
# 3. Optimization of kinase concentration required for assay at ATP Km,app. Using the ATP Km,app concentration of ATP determined in step 2, the kinase titration was repeated in order to determine the concentration of kinase required to elicit an approximately 80% change between the minimum and maximum TR-FRET emission ratios at the ATP Km,app concentration of ATP (the EC80 value). This was the concentration of kinase that will be used in an assay to determine an IC50 value for a compound of the invention.
# Using the ATP and kinase concentrations determined above, the reaction was then performed in the presence of a dilution series of various compounds of the invention, and the amount of compounds required to elicit a 50% change in TR-FRET ratio (the IC50) was determined. The experiments can be performed over two days, with steps one and two being performed on the first day, and step three and the inhibitor IC50 determination(s) being performed on the second day.
# [6] = target: EGFR Del/T790M/L718Q Ba/F3 cells (Homo sapiens, UniProt P00533, L718Q/T790M, cells depend on it, form not given); type: cell-based; settings: 1.0 μM drug
# Excerpt: as §1, §2
# KIF5B/Ret_V804M = assay: Ba/F3 cell growth inhibition (MTS assay), KIF5B/Ret_V804M; type: cell-based
# Description: as §2
structure (smiles),measurement,setting,value
"C=CC(=O)Nc1cccc(N(C(=O)OCc2ccccc2)c2ccnc(Nc3ccc(N4CCN(C)CC4)cc3OC)n2)c1 [Compound 4A, Benzyl (3-acrylamidophenyl)(2-((2-methoxy-4-(4-methylpiperazin-1-yl)phenyl)amino)pyrimidin-4-yl)carbamate]",Microsome Stability Mouse min,[1],29 min
same,IC50,[2],2.92 nM
same,IC50,"EGFR Del Ba/F3 cells; Assay 1, Del, read-out: EGFR Ba/F3 cells IC 50 (nM) Assay 1 Del",14.2 nM
same,IC50,"[3]; Assay 1, Del/T790M, read-out: EGFR Ba/F3 cells IC 50 (nM) Assay 1 Del/T790M",17.3 nM
same,IC50,"EGFR L858R Ba/F3 cells; Assay 1, L858R, read-out: EGFR Ba/F3 cells IC 50 (nM) Assay 1 L858R",0.5 nM
same,IC50,"[4]; Assay 1, L858R/T790M, read-out: EGFR Ba/F3 cells IC 50 (nM) Assay 1 L858R/T790M",7.6 nM
same,IC50,[5],293 nM
same,"Kinase inhibition (% control, 1000 nM compound) BLK",BLK,20 % control
same,"Kinase inhibition (% control, 1000 nM compound) ITK",ITK,100 % control
same,"Kinase inhibition (% control, 1000 nM compound) TEC",TEC,83 % control
same,"Kinase inhibition (% control, 1000 nM compound) TXK",TXK,27 % control
C=CC(=O)Nc1cccc(N(C(=O)Nc2ccccc2)c2cc(Nc3ccc(N4CCN(C)CC4)cc3)ncn2)c1 [Compound 25A],"EGFR activity (% Control, 100 nM drug) Del","EGFR Del Ba/F3 cells; 100 nM drug, Table G",14 % Control
same,"EGFR activity (% Control, 100 nM drug) Del/T790M","[3]; 100 nM drug, Table G",53 % Control
same,"EGFR activity (% Control, 100 nM drug) L858R","EGFR L858R Ba/F3 cells; 100 nM drug, Table G",1 % Control
same,"EGFR activity (% Control, 100 nM drug) L858R/T790M","[4]; 100 nM drug, Table G",24 % Control
same,IC50,BTK,31.2 nM
C=CC(=O)Nc1cc(Nc2nccc(N(C)C(=O)Oc3ccccc3)n2)c(OC)cc1N(C)CCN(C)C [Compound 80A],"Kinase inhibition (% control, 1000 nM compound) BLK",BLK,14 % control
same,"Kinase inhibition (% control, 1000 nM compound) ITK",ITK,94 % control
same,"Kinase inhibition (% control, 1000 nM compound) TEC",TEC,90 % control
same,"Kinase inhibition (% control, 1000 nM compound) TXK",TXK,12 % control
CN(C)C/C=C/C(=O)Nc1cccc(N(C(=O)OCc2ccccc2)c2ccnc3[nH]ccc23)c1 [Compound 104A],IC50,BTK,> 10000 nM
"C=CC(=O)Nc1cccc(N(C(=O)NCc2ccccc2)c2cc(Nc3ccc(N4CCN(C)CC4)cc3OC)ncn2)c1 [Compound 3A, N-(3-(3-benzyl-1-(6-((2-methoxy-4-(4-methylpiperazin-1-yl)phenyl)amino)pyrimidin-4-yl)ureido)phenyl)acrylamide]","EGFR activity (% Control, 1.0 μM drug) Assay 1 Del","EGFR Del Ba/F3 cells; 1.0 μM drug, Assay 1",2 % Control
same,"EGFR activity (% Control, 1.0 μM drug) Assay 2 Del","EGFR Del Ba/F3 cells; 1.0 μM drug, Assay 2",1 % Control
same,"EGFR activity (% Control, 1.0 μM drug) Assay 1 Del/T790M","[3]; 1.0 μM drug, Assay 1",1 % Control
same,"EGFR activity (% Control, 1.0 μM drug) Assay 2 Del/T790M","[3]; 1.0 μM drug, Assay 2",2 % Control
same,"EGFR activity (% Control, 1.0 μM drug) Assay 1 Del/T790M/L718Q",[6]; Assay 1,53 % Control
same,"EGFR activity (% Control, 1.0 μM drug) Assay 2 Del/T790M/L718Q",[6]; Assay 2,86 % Control
same,"EGFR activity (% Control, 1.0 μM drug) Assay 1 L858R","EGFR L858R Ba/F3 cells; 1.0 μM drug, Assay 1",2 % Control
same,"EGFR activity (% Control, 1.0 μM drug) Assay 2 L858R","EGFR L858R Ba/F3 cells; 1.0 μM drug, Assay 2",4 % Control
same,"EGFR activity (% Control, 1.0 μM drug) Assay 1 KIF5B/Ret_V804M",KIF5B/Ret_V804M,102 % Control
same,"Kinase inhibition (% control, 1000 nM compound) BLK",BLK,19 % control
same,"Kinase inhibition (% control, 1000 nM compound) ITK",ITK,100 % control
same,"Kinase inhibition (% control, 1000 nM compound) TEC",TEC,55 % control
same,"Kinase inhibition (% control, 1000 nM compound) TXK",TXK,7.4 % control
